According to patent EP4650362A1, “NEUROPROTECTIVE PSD-95 POLYPEPTIDE INHIBITOR AND USE THEREOF” (Beijing Tuo Jie Biopharmaceutical Co. Ltd., priority 2023, dated 2024):
Values joined by “and” are separate entries in the source; they are usually repeats but may differ in a detail not shown here. Equal entries are not always repeated.

Key:
[1] = plasma stability test, rat plasma; type: in vitro ADME; conditions: 2 µM (test control)
Description: (§1) This test example assessed the in vitro stability of polypeptide compounds in rat and human plasma, and is divided into two parts: 1) the stability of the individual polypeptide compounds in rat and human plasma; and 2) the stability of the polypeptide compounds in rat and human plasma when the polypeptide compounds are administered simultaneously with alteplase (rt-PA).
(§2) Solution preparation: An appropriate amount of a test polypeptide compound was weighed out and dissolved in an appropriate amount of 1× PBS to form a 1 mM test solution. NA-1 and NoNO42 were used as positive drugs, propantheline bromide was used as a human plasma test control, and lovastatin was used as a rat plasma test control.
(§3) Plasma stability test: 12.5 µL of the 1 mM test solution was added to a 495 µL pre-incubated plasma sample. The prepared plasma sample was added to centrifuge tubes of different incubation times (0 min, 10 min, 20 min, 30 min, 60 min, and 120 min) (50 µL/tube), and the tubes were then incubated in a water bath at 37 °C with shaking at 60 rpm. For each incubation time, two parallel samples were set. Subsequently, 200 µL of stop solution was added to stop the incubation, and the mixtures were vortexed for 5 min. Then the mixtures were centrifuged at 10,000 rpm at 4 °C for 10 min to remove the protein in the sample, and 70 µL of the supernatant was transferred to a new 96-well plate (70 µL of water was added to each well beforehand) and well mixed.
(§4) The remaining compound content at each time point was determined by LC-MS/MS, and the relative remaining compound contents at the other time points were calculated with the content at 0 min as a standard (100%).
(§5) Sample pretreatment: A 30 µL plasma sample was taken and added to 120 µL of a 5% solution of formic acid in methanol containing 1 ng/mL internal standard (verapamil). The mixture was vortexed for 5 min and centrifuged at low temperature at 10,000 rpm for 10 min. 70 µL of the supernatant was taken, and 70 µL of a 0.1% aqueous solution of formic acid was added and well mixed, and the mixture was injected into an LC-MS system for analysis.
(§6) LC-MS analysis: (1) Chromatographic conditions: mobile phase A: 0.1% formic acid in water; mobile phase B: 0.1% formic acid in acetonitrile; flow rate: 0.5 mL/min; injection volume: 10 µL; chromatography column: nanomicro Unisil C18aq (4.6 mm × 150 mm, 5 µm); column temperature: 40 °C. (2) Mass-spectrometric conditions: The mass spectrometry analysis used an electrospray ionization (ESI) source, a positive ion analysis mode, and a multi-reaction monitoring (MRM) scan mode. The experimental results are shown in Table 4-1, Table 4-2, FIG. 2A, FIG. 2B, FIG. 2C, and FIG. 2D. Table 4-1. The plasma stability of the polypeptide compound

[2] = plasma stability test, human plasma; type: in vitro ADME; conditions: 2 µM (test control)
Description: as §1, §2, §3, §4, §5, §6

[3] = molecular target: human PSD95-PDZ2 (the tag was removed by TEV enzyme) (human) (UniProt P78352); experiment: competitive ELISA; NA-1 reference value printed with compound 17; competitor Biotin-NA-1 at 0.3 µM
[4] = molecular target: human PSD95-PDZ2 (the tag was removed by TEV enzyme) (human) (UniProt P78352); experiment: competitive ELISA; NA-1 reference value printed with compound 22; competitor Biotin-NA-1 at 0.3 µM
[5] = molecular target: Biotin-PDZ2 (human); experiment: binding ELISA; ratio of EC50 on Biotin-PDZ3 to EC50 on Biotin-PDZ2
[6] = molecular target: human PSD95-PDZ2 (the tag was removed by TEV enzyme) (human) (UniProt P78352); experiment: competitive ELISA; NA-1 reference value printed with compound 16; competitor Biotin-NA-1 at 0.3 µM
[7] = molecular target: Biotin-PDZ2 (human); experiment: binding ELISA; peptide coated at 2 µM, Biotin-PDZ2 titrated
[8] = molecular target: human PSD95-PDZ2 (the tag was removed by TEV enzyme) (human) (UniProt P78352); experiment: competitive ELISA; NA-1 reference value printed with compound 15; competitor Biotin-NA-1 at 0.3 µM
[9] = test system: PDZ2; conditions: Science, 2002, 298:846-50; cited from earlier work

Chain of human PSD95-PDZ2 (the tag was removed by TEV enzyme) (human) (P78352 155-249 limits assumed): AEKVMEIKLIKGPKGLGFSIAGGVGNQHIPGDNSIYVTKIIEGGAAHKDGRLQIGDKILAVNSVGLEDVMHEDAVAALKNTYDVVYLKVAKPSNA

CC[C@H](C)C(=O)O[C@H]1C[C@@H](C)C=C2C=C[C@H](C)[C@H](CC[C@@H]3C[C@@H](O)CC(=O)O3)[C@H]21 [Lovastatin]
Relative remaining compound content (%) ([1]; 0min (standard 100%)): 100.0%
Relative remaining compound content (%) ([1]; 10min): 8.5% and 9.6%
Relative remaining compound content (%) ([1]; 20min): 1.8% and 2.1%
Relative remaining compound content (%) ([1]; 30min): 0.7% and 0.9%

CC(C)[N+](C)(CCOC(=O)C1c2ccccc2Oc2ccccc21)C(C)C [Propantheline bromide]
Relative remaining compound content (%) ([2]; 0min (standard 100%)): 100.0%
Relative remaining compound content (%) ([2]; 10min): 80.2% and 84.0%
Relative remaining compound content (%) ([2]; 20min): 71.5% and 66.8%
Relative remaining compound content (%) ([2]; 30min): 63.4% and 53.4%
Relative remaining compound content (%) ([2]; 60min): 42.7% and 26.4%
Relative remaining compound content (%) ([2]; 120min): 10.9% and 7.2%

NA-1 (peptide)
IC50 [3]: 872 nM
IC50 [4]: 517 nM
Specificity for PDZ2 (PDZ3/PDZ2) [5]: > 10000
IC50 [6]: 872 nM
EC50 [7]: 83 nM
IC50 [8]: 872 nM

YGRKKRRQRRRKLSSIEADA (source 1..20: note = NA-1(ADA)) [negative control, mutant of NA-1 obtained by mutating the amino acids at positions 0 and -2 into Ala]
ability to bind to PDZ2 [9]: no ability to bind to PDZ2
